# Where a name gives a salt, the structure may show the parent alone.
# What was measured:
# [1] = model of spinal stenosis; cited from earlier work
# beta amyloid protein = conditions: varying concentrations of sodium citrate; thioflavin T positive aggregates; cited from earlier work
# [2] = TEC vs. Lipinski criteria for CNS drug like properties; conditions: four criteria: MW, LogP, HBD, HBA
# [3] = 70 kg man, estimated, extrapolated from animal models; cited from earlier work
smiles,measurement,setting,value
O=C(O)CC(O)(CC(=O)O)C(=O)O [Citrate],Bone calcium,[1],decrease bone calcium
O=C([O-])CC(O)(CC(=O)[O-])C(=O)[O-].[Na+].[Na+].[Na+] [sodium citrate],Dissolution of calcium-produced beta amyloid aggregates,beta amyloid protein,aggregates dissolve in response to citrate concentration
"CCOC(=O)CC(O)(CC(=O)OCC)C(=O)OCC [TEC, Triethyl citrate]",Lipinski criteria met for a CNS drug,[2],Three out of four
same,LD50,[3],~500 cc

# — patent US11786495B2 (priority 2021, dated 2023)
